# Laboratory results from PubChem BioAssay AID2060609 (Molecular Pharmacology Branch, DTP, NCI, 2025).
# Tested on: 855422-203-R-J1-PDC complex spheroids, viability
# Assay: Anticancer human tumor 855422-203-R-J1-PDC patient-derived bladder carcinoma cell line growth inhibition [CLK]
# Conditions: for IC50: curve of first compound; for viability, T/C: stronger effect = lower value
# How it was run: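 Multi-cell-type spheroids combined patient-derived tumor cells with HUVEC endothelial cells and human mesenchymal stem cells. Paired agents were dosed in half-log steps down from about clinical Cmax, or from 10 microM where Cmax was unknown.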
# [1] = second compound 0.0316 µM, first compound 0.0316 µM
# [2] = second compound 0.0316 µM, first compound 0.1 µM
# [3] = second compound 0.0316 µM, first compound 0.316 µM
# [4] = second compound 0.0316 µM, first compound 1 µM
# [5] = second compound 0.0316 µM, first compound 3.16 µM
# [6] = second compound 0.0316 µM, first compound 10 µM
# [7] = second compound 0.1 µM, first compound 0.0316 µM
# [8] = second compound 0.1 µM, first compound 0.1 µM
# [9] = second compound 0.1 µM, first compound 0.316 µM
# [10] = second compound 0.1 µM, first compound 1 µM
# [11] = second compound 0.1 µM, first compound 3.16 µM
# [12] = second compound 0.1 µM, first compound 10 µM
# [13] = second compound 0.316 µM, first compound 0.0316 µM
# [14] = second compound 0.316 µM, first compound 0.1 µM
# [15] = second compound 0.316 µM, first compound 0.316 µM
# [16] = second compound 0.316 µM, first compound 1 µM
# [17] = second compound 0.316 µM, first compound 3.16 µM
# [18] = second compound 0.316 µM, first compound 10 µM
# [19] = second compound 1 µM, first compound 0.0316 µM
# [20] = second compound 1 µM, first compound 0.1 µM
# [21] = second compound 1 µM, first compound 0.316 µM
# [22] = second compound 1 µM, first compound 1 µM
# [23] = second compound 1 µM, first compound 3.16 µM
# [24] = second compound 1 µM, first compound 10 µM
# [25] = second compound 3.16 µM, first compound 0.0316 µM
# [26] = second compound 3.16 µM, first compound 0.1 µM
# [27] = second compound 3.16 µM, first compound 0.316 µM
# [28] = second compound 3.16 µM, first compound 1 µM
# [29] = second compound 3.16 µM, first compound 3.16 µM
# [30] = second compound 3.16 µM, first compound 10 µM
# [31] = second compound 10 µM, first compound 0.0316 µM
# [32] = second compound 10 µM, first compound 0.1 µM
# [33] = second compound 10 µM, first compound 0.316 µM
# [34] = second compound 10 µM, first compound 1 µM
# [35] = second compound 10 µM, first compound 3.16 µM
# [36] = second compound 10 µM, first compound 10 µM
# 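Note: spheroids exposed to drugs for seven days before readout.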
# 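Throughout, for viability, T/C: 100% = DMSO vehicle control wells.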
compound,measurement,setting,value
CC1(C)CCC(CN2CCN(c3ccc(C(=O)NS(=O)(=O)c4ccc(NCC5CCOCC5)c([N+](=O)[O-])c4)c(Oc4cnc5[nH]ccc5c4)c3)CC2)=C(c2ccc(Cl)cc2)C1 + CNC(=O)c1ccc(Nc2nc(OC3CCCC3)c3c(-c4ccc5nc(C)oc5c4)c[nH]c3n2)c(OC)c1,IC50,second compound 0.0316 µM,6590 nM
same,IC50,second compound 0.1 µM,4220 nM
same,IC50,second compound 0.316 µM,< 31.6 nM
same,IC50,second compound 1 µM,< 31.6 nM
same,IC50,second compound 3.16 µM,< 31.6 nM
same,IC50,second compound 10 µM,< 31.6 nM
same,"viability, T/C",[1],128%
same,"viability, T/C",[2],118%
same,"viability, T/C",[3],116%
same,"viability, T/C",[4],125%
same,"viability, T/C",[5],173%
same,"viability, T/C",[6],3.47%
same,"viability, T/C",[7],54.1%
same,"viability, T/C",[8],68.9%
same,"viability, T/C",[9],62.4%
same,"viability, T/C",[10],75.5%
same,"viability, T/C",[11],69.2%
same,"viability, T/C",[12],2.06%
same,"viability, T/C",[13],20.6%
same,"viability, T/C",[14],23.1%
same,"viability, T/C",[15],28.9%
same,"viability, T/C",[16],20.9%
same,"viability, T/C",[17],20.5%
same,"viability, T/C",[18],3.1%
same,"viability, T/C",[19],21.3%
same,"viability, T/C",[20],18.3%
same,"viability, T/C",[21],19.3%
same,"viability, T/C",[22],27.2%
same,"viability, T/C",[23],23.3%
same,"viability, T/C",[24],3.87%
same,"viability, T/C",[25],22.6%
same,"viability, T/C",[26],24.9%
same,"viability, T/C",[27],19.5%
same,"viability, T/C",[28],22.9%
same,"viability, T/C",[29],19.1%
same,"viability, T/C",[30],6.53%
same,"viability, T/C",[31],17.3%
same,"viability, T/C",[32],19.6%
same,"viability, T/C",[33],19.3%
same,"viability, T/C",[34],19.4%
same,"viability, T/C",[35],19.3%
same,"viability, T/C",[36],4.56%
CC1COCCN1c1cc(C2(S(C)(=N)=O)CC2)nc(-c2ccnc3[nH]ccc23)n1 (stereo unspecified) + CNC(=O)c1ccc(Nc2nc(OC3CCCC3)c3c(-c4ccc5nc(C)oc5c4)c[nH]c3n2)c(OC)c1,IC50,second compound 0.0316 µM,2340 nM
same,IC50,second compound 0.1 µM,1070 nM
same,IC50,second compound 0.316 µM,< 31.6 nM
same,IC50,second compound 1 µM,< 31.6 nM
same,IC50,second compound 3.16 µM,< 31.6 nM
same,IC50,second compound 10 µM,< 31.6 nM
same,"viability, T/C",[1],101%
same,"viability, T/C",[2],95.5%
same,"viability, T/C",[3],103%
same,"viability, T/C",[4],111%
same,"viability, T/C",[5],31.3%
same,"viability, T/C",[6],11.1%
same,"viability, T/C",[7],61.3%
same,"viability, T/C",[8],65%
same,"viability, T/C",[9],57.3%
same,"viability, T/C",[10],52.4%
same,"viability, T/C",[11],18.6%
same,"viability, T/C",[12],11.6%
same,"viability, T/C",[13],23.3%
same,"viability, T/C",[14],22%
same,"viability, T/C",[15],23.2%
same,"viability, T/C",[16],15.2%
same,"viability, T/C",[17],11.8%
same,"viability, T/C",[18],9.36%
same,"viability, T/C",[19],22.3%
same,"viability, T/C",[20],20.9%
same,"viability, T/C",[21],24.7%
same,"viability, T/C",[22],17.8%
same,"viability, T/C",[23],12.2%
same,"viability, T/C",[24],6.79%
same,"viability, T/C",[25],22.9%
same,"viability, T/C",[26],20.1%
same,"viability, T/C",[27],18.5%
same,"viability, T/C",[28],20%
same,"viability, T/C",[29],10.8%
same,"viability, T/C",[30],6.49%
same,"viability, T/C",[31],18.1%
same,"viability, T/C",[32],18.4%
same,"viability, T/C",[33],21%
same,"viability, T/C",[34],20.2%
same,"viability, T/C",[35],13.6%
same,"viability, T/C",[36],7.4%
NC(=O)C(=Cn1cnc(-c2cc(C(F)(F)F)cc(C(F)(F)F)c2)n1)c1cncnc1 + CNC(=O)c1ccc(Nc2nc(OC3CCCC3)c3c(-c4ccc5nc(C)oc5c4)c[nH]c3n2)c(OC)c1,IC50,second compound 0.0316 µM,69.3 nM
same,IC50,second compound 0.1 µM,< 9.49 nM
same,IC50,second compound 0.316 µM,< 9.49 nM
same,IC50,second compound 1 µM,< 9.49 nM
same,IC50,second compound 3.16 µM,< 9.49 nM
same,IC50,second compound 10 µM,< 9.49 nM
same,"viability, T/C","second compound 0.0316 µM, first compound 0.00949 µM",123%
same,"viability, T/C","second compound 0.0316 µM, first compound 0.03 µM",150%
same,"viability, T/C","second compound 0.0316 µM, first compound 0.0949 µM",17.6%
same,"viability, T/C","second compound 0.0316 µM, first compound 0.3 µM",10.1%
same,"viability, T/C","second compound 0.0316 µM, first compound 0.949 µM",9.34%
same,"viability, T/C","second compound 0.0316 µM, first compound 3 µM",3.87%
same,"viability, T/C","second compound 0.1 µM, first compound 0.00949 µM",44.8%
same,"viability, T/C","second compound 0.1 µM, first compound 0.03 µM",50.1%
same,"viability, T/C","second compound 0.1 µM, first compound 0.0949 µM",12.1%
same,"viability, T/C","second compound 0.1 µM, first compound 0.3 µM",6.75%
same,"viability, T/C","second compound 0.1 µM, first compound 0.949 µM",5.9%
same,"viability, T/C","second compound 0.1 µM, first compound 3 µM",2.36%
same,"viability, T/C","second compound 0.316 µM, first compound 0.00949 µM",20.1%
same,"viability, T/C","second compound 0.316 µM, first compound 0.03 µM",13.7%
same,"viability, T/C","second compound 0.316 µM, first compound 0.0949 µM",12.3%
same,"viability, T/C","second compound 0.316 µM, first compound 0.3 µM",6.63%
same,"viability, T/C","second compound 0.316 µM, first compound 0.949 µM",3.98%
same,"viability, T/C","second compound 0.316 µM, first compound 3 µM",3%
same,"viability, T/C","second compound 1 µM, first compound 0.00949 µM",18.6%
same,"viability, T/C","second compound 1 µM, first compound 0.03 µM",10.4%
same,"viability, T/C","second compound 1 µM, first compound 0.0949 µM",9.1%
same,"viability, T/C","second compound 1 µM, first compound 0.3 µM",3.59%
same,"viability, T/C","second compound 1 µM, first compound 0.949 µM",1.47%
same,"viability, T/C","second compound 1 µM, first compound 3 µM",0.79%
same,"viability, T/C","second compound 3.16 µM, first compound 0.00949 µM",14.3%
same,"viability, T/C","second compound 3.16 µM, first compound 0.03 µM",14%
same,"viability, T/C","second compound 3.16 µM, first compound 0.0949 µM",6.09%
same,"viability, T/C","second compound 3.16 µM, first compound 0.3 µM",2.12%
same,"viability, T/C","second compound 3.16 µM, first compound 0.949 µM",1.2%
same,"viability, T/C","second compound 3.16 µM, first compound 3 µM",1.63%
same,"viability, T/C","second compound 10 µM, first compound 0.00949 µM",14.7%
same,"viability, T/C","second compound 10 µM, first compound 0.03 µM",13.1%
same,"viability, T/C","second compound 10 µM, first compound 0.0949 µM",7.07%
same,"viability, T/C","second compound 10 µM, first compound 0.3 µM",1.75%
same,"viability, T/C","second compound 10 µM, first compound 0.949 µM",1.33%
same,"viability, T/C","second compound 10 µM, first compound 3 µM",0.47%
